How the values were obtained:
Akt phosphorylation = test: Akt Phosphorylation Assay (western blot), Panc-1; type: cell-based, human; conditions: at 10 μM, * = activation
In short: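 Panc-1 (KRas G12D) cells were treated with compound at 10 μM final (0.3% DMSO) for 6 h at 37 °C, or with serial dilutions for IC50. Cells were either serum-starved overnight in 0.5% FBS and then stimulated with 1.5 ng/ml EGF for 15 min, or kept in 10% FBS without stimulation. Akt Ser473 phosphorylation in lysates was read by western blot.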

IL6 = test: IL-6 Quantification Assay (ELISA), LPS-stimulated RAW 264.7; type: cell-based; parameters: inhibition: dose or concentration left out as unconfirmed; conditions: Mus musculus, RAW264.7; read-out: IL-6: % inh.
TNF-alpha = TNF-alpha Quantification Assay (ELISA), LPS-stimulated RAW 264.7; type: cell-based; conditions: Mus musculus, RAW264.7; at 10 μM; read-out: TNFα: % inh.
KRas G12C mutant = test: Ras GTP Binding Domain Inhibition Assay (Ras Superfamily Assay); conditions: 20 μM compound; for KRas G12C mutant + SOS: % inh.: with SOS; for KRas G12C mutant: % inh.: without SOS
In short: (§1)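 His-tagged GTPases immobilised on nickel-coated plates, pre-incubated with compound (20 μM single point, or serial dilution for IC50) 3 h at room temperature, with or without 10-30 μg/mL Sos (residues 556-1049) in the final hour. Bound Cy3- or Cy5-GTP (100 nM, 45 min) measured by fluorescence after washing.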

KRas G12D mutant = test: as above; conditions: 20 μM compound; for KRas G12D mutant + SOS: % inh.: with SOS; for KRas G12D mutant: % inh.: without SOS
In short: as §1

KRas Q61H mutant = test: as above; conditions: 20 μM compound; for KRas Q61H mutant + SOS: % inh.: with SOS; for KRas Q61H mutant: % inh.: without SOS
In short: as §1

KRas wild type = test: as above; conditions: 20 μM compound; for KRas wild type + SOS: % inh.: with SOS; for KRas wild type: % inh.: without SOS
In short: as §1

Rac-1 = target: T1, Rac-1 (Homo sapiens, UniProt P63000); test: as above; conditions: read-out: Rac-1: % inh.
T1 construct: made in house
In short: as §1

Rho-A = target: T2, Rho-A (Homo sapiens, UniProt P61586); test: as above; conditions: read-out: Rho-A: % inh..
T2 construct: made in house
T2 sequence (P61586 whole entry): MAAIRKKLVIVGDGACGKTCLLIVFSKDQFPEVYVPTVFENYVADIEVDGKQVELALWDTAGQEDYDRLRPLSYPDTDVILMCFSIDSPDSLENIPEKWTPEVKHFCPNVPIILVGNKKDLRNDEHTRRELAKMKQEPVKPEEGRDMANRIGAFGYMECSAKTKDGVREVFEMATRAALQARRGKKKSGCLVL
In short: as §1

Row | SMILES | % inh of Akt phosphorylation in Panc-1 (Akt phosphorylation) | inhibition (IL6) [%] | inhibition at 10 µM (TNF-alpha) [%] | KRas G12C mutant + SOS: % inh. (KRas G12C mutant) | KRas G12C mutant: % inh. (KRas G12C mutant) | KRas G12D mutant + SOS: % inh. (KRas G12D mutant) | KRas G12D mutant: % inh. (KRas G12D mutant) | KRas Q61H mutant + SOS: % inh. (KRas Q61H mutant) | KRas Q61H mutant: % inh. (KRas Q61H mutant) | KRas wild type + SOS: % inh. (KRas wild type) | KRas wild type: % inh. (KRas wild type) | inhibition at 20 µM (Rac-1) [%] | inhibition at 20 µM (Rho-A) [%]
1 | COC1CCCN(c2nc(-c3ccccn3)nn3cc(-c4ccn(C(C)C)n4)c(-c4ccccc4)c23)C1 (racemic) [Compound 27, rac 6-(1-Isopropyl-1H-pyrazol-3-yl)-4-(3-methoxypiperidin-1-yl)-5-phenyl-2-(pyridin-2-yl)pyrrolo[2,1-f][1,2,4]triazine] | A* (1-25% activation) | 75 to 100 | 25 to 49 | 0 (0 = 0% inhibition) | 0 (0 = 0% inhibition) | 0 (0 = 0% inhibition) | 0 (0 = 0% inhibition) | 0 (0 = 0% inhibition) | A (A = 1-25% inhibition) | A (A = 1-25% inhibition) | A (A = 1-25% inhibition) | 1 to 25 | 1 to 25
2 | Cc1c(-c2ccn(C(C)C)n2)cn2nc(-c3nccn3C)nc(Nc3ncco3)c12 [Compound 60, N-(6-(1-Isopropyl-1H-pyrazol-3-yl)-5-methyl-2-(1-methyl-1H-imidazol-2-yl)pyrrolo[2,1-f][1,2,4]triazin-4-yl)oxazol-2-amine] | D* (85-100% activation) | 0 | 0 | 0 (0 = 0% inhibition) | A (A = 1-25% inhibition) | A (A = 1-25% inhibition) | A (A = 1-25% inhibition) | C (C = 50-75% inhibition) | B (B = 26-49% inhibition) | A (A = 1-25% inhibition) | A (A = 1-25% inhibition) | 1 to 25 | 1 to 25
3 | COCCCNc1nc(-c2nccn2C)nn2cc(-c3cccc(OC)c3Cl)c(-c3ccccc3)c12 [Compound 30, 6-(2-Chloro-3-methoxyphenyl)-N-(3-methoxypropyl)-2-(1-methyl-1H-imidazol-2-yl)-5-phenylpyrrolo[2,1-f][1,2,4]triazin-4-amine] | D (85-100% inhibition) | 75 to 100 | 75 to 100 | 0 (0 = 0% inhibition) | A (A = 1-25% inhibition) | A (A = 1-25% inhibition) | 0 (0 = 0% inhibition) | 0 (0 = 0% inhibition) | 0 (0 = 0% inhibition) | 0 (0 = 0% inhibition) | A (A = 1-25% inhibition) | 0 | 1 to 25
4 | COc1cccc(Nc2nc(-c3nccn3C)nn3ccc(-c4ccccc4)c23)n1 [Compound 40, N-(6-Methoxypyridin-2-yl)-2-(1-methyl-1H-imidazol-2-yl)-5-phenylpyrrolo[2,1-f][1,2,4]triazin-4-amine] | 0 (0% inhibition) | 75 to 100 | 25 to 49 | 0 (0 = 0% inhibition) | 0 (0 = 0% inhibition) | 0 (0 = 0% inhibition) | 0 (0 = 0% inhibition) | A (A = 1-25% inhibition) | 0 (0 = 0% inhibition) | 0 (0 = 0% inhibition) | 0 (0 = 0% inhibition) | 1 to 25 | 1 to 25
5 | Cc1c(-c2ccn(C(C)C)n2)cn2nc(-c3nccn3C)nc(Nc3ccn(C)n3)c12 [Compound 61, 6-(1-Isopropyl-1H-pyrazol-3-yl)-5-methyl-2-(1-methyl-1H-imidazol-2-yl)-N-(1-methyl-1H-pyrazol-3-yl)pyrrolo[2,1-f][1,2,4]triazin-4-amine] | C* (46-84% activation) | 1 to 24 | 1 to 24 | D (D = 76-100% inhibition) | D (D = 76-100% inhibition) | D (D = 76-100% inhibition) | D (D = 76-100% inhibition) | D (D = 76-100% inhibition) | D (D = 76-100% inhibition) | D (D = 76-100% inhibition) | D (D = 76-100% inhibition) | 76 to 100 | 76 to 100
6 | CO[C@H]1CC[C@@H](Nc2nc(-c3nccn3C)nn3cc(-c4ccn(C(C)C)n4)c(C(C)C)c23)C1 (racemic) [Compound 36, rac 5-Isopropyl-6-(1-isopropyl-1H-pyrazol-3-yl)-N-((1R,3S)-3-methoxycyclopentyl)-2-(1-methyl-1H-imidazol-2-yl)pyrrolo[2,1-f][1,2,4]triazin-4-amine] | 0 (0% inhibition) | 50 to 74 | 1 to 24 | 0 (0 = 0% inhibition) | A (A = 1-25% inhibition) | A (A = 1-25% inhibition) | A (A = 1-25% inhibition) | A (A = 1-25% inhibition) | A (A = 1-25% inhibition) | A (A = 1-25% inhibition) | 0 (0 = 0% inhibition) | 0 | 1 to 25
7 | COc1cnc(Nc2nc(-c3nccn3C)nn3cc(-c4ccn(C(C)C)n4)c(C)c23)nc1 [Compound 56, 6-(1-Isopropyl-1H-pyrazol-3-yl)-N-(5-methoxypyrimidin-2-yl)-5-methyl-2-(1-methyl-1H-imidazol-2-yl)pyrrolo[2,1-f][1,2,4]triazin-4-amine] | B* (26-49% activation) | 25 to 49 | 1 to 24 | A (A = 1-25% inhibition) | C (C = 50-75% inhibition) | B (B = 26-49% inhibition) | B (B = 26-49% inhibition) | D (D = 76-100% inhibition) | C (C = 50-75% inhibition) | 0 (0 = 0% inhibition) | B (B = 26-49% inhibition) | 50 to 75 | 50 to 75
8 | COc1ccnc(Nc2nc(-c3nccn3C)nn3cc(-c4ccn(C(C)C)n4)c(C)c23)n1 [Compound 53, 6-(1-Isopropyl-1H-pyrazol-3-yl)-N-(4-methoxypyrimidin-2-yl)-5-methyl-2-(1-methyl-1H-imidazol-2-yl)pyrrolo[2,1-f][1,2,4]triazin-4-amine] | A* (1-25% activation) | 50 to 74 | 1 to 24 | C (C = 50-75% inhibition) | C (C = 50-75% inhibition) | C (C = 50-75% inhibition) | C (C = 50-75% inhibition) | D (D = 76-100% inhibition) | D (D = 76-100% inhibition) | C (C = 50-75% inhibition) | C (C = 50-75% inhibition) | 76 to 100 | 76 to 100
